Assay results reported in paper PMC11432330, “Novel Drug-like HsrA Inhibitors Exhibit Potent Narrow-Spectrum Antimicrobial Activities against Helicobacter pylori” (International Journal of Molecular Sciences, 2024).

Test system: H. pylori 26695
Test: In vivo inhibition of HsrA: RNA-Seq transcriptomic analysis of exposed cells
Assay type: cell-based, Helicobacter pylori
Conditions: for log2 Fold Change: exposed to lethal concentrations vs control
Protocol: Bacterial growth from three blood agar plates of H. pylori ATCC 700392 (aka 26695) incubated for 48 h at 37 °C under microaerobic conditions was aseptically resuspended in BHI + FBS and adjusted to 10^7 CFU/mL. BHI broth cultures were incubated microaerobically at 37 °C for 24 h. […] At this time, bacterial growth was stopped by adding 1.5 mL ice-cold RNA stop solution (95% absolute ethanol, 5% acid-buffered phenol) and subsequently incubated on ice. Control samples were exposed to the same amount of DMSO instead of the inhibitor. Helicobacter cells from all samples were harvested by centrifugation (4000 rpm at 4 °C for 10 min), then the pellets were quickly frozen by immersion in liquid nitrogen and stored at −80 °C.
RNA-Seq analysis was performed by GENEWIZ (Azenta Life Sciences, Leipzig, Germany). Frozen cell pellets from two biological replicates of each treatment condition were properly submitted to GENEWIZ in dry ice. RNA-Seq libraries were prepared according to standard protocols via rRNA depletion, RNA fragmentation and random priming, reverse transcription, 5’-phosphorylation and dA-tailing of cDNAs, adaptor ligation, and PCR enrichment. Once the quality of each library was confirmed, they were sequenced on an Illumina NovaSeq 6000 (Illumina, San Diego, CA, USA) with 150-bp paired-ends. Raw sequence reads were filtered to remove possible adapter sequences and nucleotides with poor quality using Trimmomatic v.0.36 [105]. The trimmed reads were subsequently mapped to the H. pylori strain 26695 reference genome NC_000915.1 available on NCBI, by using the Bowtie2 aligner v.2.2.6 [106]. Unique gene hit counts were calculated by using featureCounts from the Subread package v.1.5.2. Only unique reads that fell within the gene regions were counted. Using DESeq2 [108], a comparison of the gene expression between the control and treated groups of samples was performed. The Wald test was used to generate p-values and log2 fold changes. Genes with an adjusted p-value < 0.05 and absolute log2 fold change >1 were considered as differentially expressed genes (DEGs) for each comparison. The RNA-Seq data generated in this study have been deposited in ArrayExpress with the accession number E-MTAB-14255.

NC(=NOC(=O)Nc1ccc(Cl)cc1)c1csc([N+](=O)[O-])c1 [Ligand V, N′-{[(4-chloroanilino)carbonyl]}oxy-5-nitrothiophene-3-carboximidamide]
log2 Fold Change (gene HP1464): -0.584 | log2 Fold Change (gene HP1467): 1.322 | log2 Fold Change HP1469 (gene HP1469, lethal concentrations of V vs control): 0.362 | log2 Fold Change (gene HP1470): 1.312 | log2 Fold Change HP1473 (gene HP1473, lethal concentrations of V vs control): 0.275 | log2 Fold Change (gene HP1481): -0.602 | log2 Fold Change HP1492 (gene HP1492, lethal concentrations of V vs control): 0.282 | log2 Fold Change HP1499 (gene HP1499, lethal concentrations of V vs control): 0.340 | log2 Fold Change HP1501 (gene HP1501, lethal concentrations of V vs control): 0.305 | log2 Fold Change (gene HP1504): 1.311 | log2 Fold Change HP1505 (gene HP1505, lethal concentrations of V vs control): 0.278 | log2 Fold Change HP1512 (gene HP1512, lethal concentrations of V vs control): 0.234 | log2 Fold Change (gene HP1513): -0.489 | log2 Fold Change HP1521 (gene HP1521, lethal concentrations of V vs control): 0.260 | log2 Fold Change (gene HP1537): -0.495 | log2 Fold Change HP1539 (gene HP1539, lethal concentrations of V vs control): 0.288 | log2 Fold Change (gene HP1556): -0.480 | log2 Fold Change HP1562 (gene HP1562, lethal concentrations of V vs control): 0.282 | log2 Fold Change (gene HP1572): -0.532 | log2 Fold Change (gene HP1573): -0.478 | log2 Fold Change (gene HPrrnA16S): 2.639 | log2 Fold Change (gene acpS): -0.554 | log2 Fold Change adk (gene adk, lethal concentrations of V vs control): 0.370 | log2 Fold Change aroB (gene aroB, lethal concentrations of V vs control): 0.331 | log2 Fold Change ddl (gene ddl, lethal concentrations of V vs control): 0.165 | log2 Fold Change dnaA (gene dnaA, lethal concentrations of V vs control): 0.315 | log2 Fold Change dnaG (gene dnaG, lethal concentrations of V vs control): 0.180 | log2 Fold Change dut (gene dut, lethal concentrations of V vs control): 0.253 | log2 Fold Change fbcH (gene fbcH, lethal concentrations of V vs control): 0.402 | log2 Fold Change flgD (gene flgD, lethal concentrations of V vs control): 0.479 | log2 Fold Change flgH (gene flgH, lethal concentrations of V vs control): 0.237 | log2 Fold Change flhF (gene flhF, lethal concentrations of V vs control): 0.252 | log2 Fold Change (gene fliQ): -0.518 | log2 Fold Change fliR (gene fliR, lethal concentrations of V vs control): 0.363 | log2 Fold Change folE (gene folE, lethal concentrations of V vs control): 0.244 | log2 Fold Change fusA (gene fusA, lethal concentrations of V vs control): 0.268 | log2 Fold Change (gene gcp): -0.507 | log2 Fold Change glmM (gene glmM, lethal concentrations of V vs control): 0.344 | log2 Fold Change (gene gltX): -0.588 | log2 Fold Change gmk (gene gmk, lethal concentrations of V vs control): 0.172 | log2 Fold Change groES (gene groES, lethal concentrations of V vs control): 0.428 | log2 Fold Change guaA (gene guaA, lethal concentrations of V vs control): 0.370 | log2 Fold Change gyrB (gene gyrB, lethal concentrations of V vs control): 0.200 | log2 Fold Change (gene hemC): -0.538 | log2 Fold Change hypA (gene hypA, lethal concentrations of V vs control): 0.375 | log2 Fold Change infB (gene infB, lethal concentrations of V vs control): 0.319 | log2 Fold Change ksgA (gene ksgA, lethal concentrations of V vs control): 0.343 | log2 Fold Change (gene lpxB): -0.543 | log2 Fold Change lpxK (gene lpxK, lethal concentrations of V vs control): 0.332 | log2 Fold Change mnmA (gene mnmA, lethal concentrations of V vs control): 0.256 | log2 Fold Change motB (gene motB, lethal concentrations of V vs control): 0.465 | log2 Fold Change mraY (gene mraY, lethal concentrations of V vs control): 0.155 | log2 Fold Change nusB (gene nusB, lethal concentrations of V vs control): 0.152 | log2 Fold Change oorC (gene oorC, lethal concentrations of V vs control): 0.231 | log2 Fold Change (gene panC): 1.338 | log2 Fold Change (gene pheT): -0.561 | log2 Fold Change porA (gene porA, lethal concentrations of V vs control): 0.146 | log2 Fold Change prfB (gene prfB, lethal concentrations of V vs control): 0.329 | log2 Fold Change pyrH (gene pyrH, lethal concentrations of V vs control): 0.243 | log2 Fold Change recA (gene recA, lethal concentrations of V vs control): 0.430 | log2 Fold Change (gene rnc): -0.477 | log2 Fold Change (gene rplQ): -0.590 | log2 Fold Change (gene rplW): -0.487 | log2 Fold Change (gene rplX): -0.561 | log2 Fold Change rpsB (gene rpsB, lethal concentrations of V vs control): 0.177 | log2 Fold Change (gene rpsI): -0.579 | log2 Fold Change ruvA (gene ruvA, lethal concentrations of V vs control): 0.457 | log2 Fold Change ruvB (gene ruvB, lethal concentrations of V vs control): 0.388 | log2 Fold Change secD (gene secD, lethal concentrations of V vs control): 0.450 | log2 Fold Change (gene tRNA-Arg-4): -0.569 | log2 Fold Change (gene tRNA-Gln-1): 1.327 | log2 Fold Change tRNA-Ser-1 (gene tRNA-Ser-1, lethal concentrations of V vs control): 0.297 | log2 Fold Change (gene tRNA-Ser-2): 1.370 | log2 Fold Change tRNA-Ser-3 (gene tRNA-Ser-3, lethal concentrations of V vs control): 0.425 | log2 Fold Change (gene tRNA-Trp-1): -0.513 | log2 Fold Change (gene tgt): -0.523 | log2 Fold Change trpD (gene trpD, lethal concentrations of V vs control): 0.327 | log2 Fold Change tsf (gene tsf, lethal concentrations of V vs control): 0.474 | log2 Fold Change uvrA (gene uvrA, lethal concentrations of V vs control): 0.417 | log2 Fold Change (gene xseA): -0.471 | log2 Fold Change yajC (gene yajC, lethal concentrations of V vs control): 0.146
